# Like-named read-outs stand apart in the source and are kept apart here.
# Key:
# HCT-116 cells = details: a human colorectal carcinoma line; cited from earlier work
# microtubule assembly = details: Cruz-Monserrate et al., Mol. Pharmacol., 2003; cited from earlier work
# [1] = aqueous solubility in de-ionized water; type: physicochemical; details: for solubility: thermodynamic from solid
# Procedure: Unless otherwise indicated, the solubility measurements described herein are determined by dissolving the test compound in de-ionized (DI) water at 25° C. […] In particular, the compounds provided by Examples 22, 23, 28, 30, 31, 37 and 38 are water soluble.
# [2] = stability of aqueous solution at room temperature; type: physicochemical
# Procedure: To the combined filtration above was added a stock solution of NaOH in water (14.4 mg/mL, 1 mL, 0.360 mmol). The resulting solution was concentrated to remove most of MeOH at room temperature. Then the residue was diluted with DI water (100 mL). This solution was filtered through a syringe filter (0.45 um) to remove tiny particles. The filtrate was lyophilized to afford the desired compound monosodium salt, 31 (285 mg, 97% yield for two steps).
# [3] = tested on: HCC461 human NSCLC xenograft; assay: HCC461 human NSCLC xenograft tumor model in mice; type: in vivo; details: FIG. 1; 20 mg/kg per dose; injections at days 7, 9, 11, 14, 16 and 18 post tumor cell injection
# Procedure: Compound 22 (prepared according to Example 22) and Compound 28 (prepared according to Example 28) were tested in a HCC461 human NSCLC xenograft tumor model in mice.
# Preparation of Tumor Cells • 1. Hcc461 cells were cultured in complete RPMI medium and excluded any contamination • 2. When cells are 70-80% confluent, medium was removed and cells were washed with serum free media, trypsinized, harvested and washed with serum free media for three times by centrifuge. After final washing, cells were counted and mixed with matrigel at 1:1 ration in volume. Cells were suspended in a volume that 200 PI contains required number of cells per injection.
# Preparation of Mice • 1. Mice should be 4-6 weeks old. • 2. Allow 3-5 days acclimatization period after mice have arrived.
# Preparation of the Injection • 1. Clean and sterilize the inoculation area of the mice with iodine solutions and ethanol. • 2. Take cells with 1-cc syringe. • 3. Inject cells (1×10^7) with 27 gauge needles subcutaneously (s.c.) into the lower flank of the mice. • 4. Therapy was started after 1 week when the tumors have reached an average volume of ˜250 mm^3. • 5. Tumor diameters are measured with digital calipers, and the tumor volume in mm^3 is calculated by the formula: Volume=(width)^2×length/2
# Treatment • 1. Compound 22 and Compound 28 were dissolved in water at concentration of 5 mg/ml and diluted to working solution with D5W before injection. Compound 16 was administered at 20 mg/kg in a mixture of 5% ethanol-5% cremaphor-90% saline. • 2. Each tumor bearing mouse was injected with Compound 22 at 20 mg/kg, Compound 28 at 20 mg/kg or at 10 mg/kg, or Compound 16 at 20 mg/kg via tail vein and continually injected with the same method for a total of 6 times, on days 7, 9, 11, 14, 16, and 18 post tumor-cell injection.
# [4] = de-ionized (DI) water at 25° C., read-out: water solubility
structure (smiles),measurement,setting,value
CC(C)[C@H](O)C(=O)NC1Cc2ccc3c(c2)[C@]24C5=C(N=C(O5)[C@H](C(C)C)NC1=O)c1nc(Cl)c(o1)-c1c(Cl)[nH]c5cccc(c15)-c1cccc2c1NC4O3 (stereo partly drawn) [Diazonamide A],GI50 values (50% growth inhibitory concentration),HCT-116 cells,less than 15 ng/ml
same,inhibition of microtubule assembly,microtubule assembly,inhibit microtubule assembly
CCC(O)(CC)C(=O)N[C@H]1Cc2ccc3c(c2)[C@]24C5=C(N=C(O5)[C@H](C(C)C)NC1=O)c1ncc(o1)-c1cn(P(=O)([O-])O)c5cccc(c15)-c1cccc2c1NC4O3.[Na+] (stereo partly drawn) [Compound 31],solubility,[1]; [4],> 1000 µg/mL
same,solubility,"[1]; water, 25 °C, water, read-out: solubility in water",20000 µg/mL
same,time for which the aqueous solution is stable,[2],more than 48 hours
CC(C)[C@@H]1NC(=O)[C@@H](NC(=O)[C@@H](OP(=O)([O-])O)C(C)C)Cc2ccc3c(c2)[C@]24C5=C(N=C1O5)c1ncc(o1)-c1c[nH]c5cccc(c15)-c1cccc2c1NC4O3.[Na+] (stereo partly drawn) [Compound 23],amount shown to dissolve in 1 mL of de-ionized water,[1]; 1 mL of de-ionized water,5 mg
same,solubility,[1]; [4],> 1000 µg/mL
CC(C)C1NC(=O)[C@@H](NC(=O)[C@@H](O)C(C)C)Cc2ccc3c(c2)C24C5=C(N=C1O5)c1ncc(o1)-c1c[nH]c5cccc(c15)-c1cccc2c1N[C@H]4O3 (stereo partly drawn) [Compound 16],tumor free animals,[3],no tumor free animals
CC(C)[C@H](O)C(=O)N[C@H]1Cc2ccc3c(c2)[C@]24C5=C(N=C(O5)[C@H](C(C)C)NC1=O)c1ncc(o1)-c1cn(P(=O)(O)O)c5cccc(c15)-c1cccc2c1NC4O3 (stereo partly drawn) [Compound 28],solubility,[1]; [4],> 1000 µg/mL
CCC(O)(CC)C(=O)N[C@H]1Cc2ccc3c(c2)C24C5=C(N=C(O5)[C@H](C(C)C)NC1=O)c1ncc(o1)-c1c[nH]c5c(OP(=O)([O-])[O-])ccc(c15)-c1cccc2c1NC4O3.[Na+].[Na+] (stereo partly drawn) [Compound 38],solubility,[1]; [4],> 1000 µg/mL
CCC(O)(CC)C(=O)N[C@H]1Cc2ccc3c(c2)[C@]24C5=C(N=C(O5)[C@H](C(C)C)NC1=O)c1ncc(o1)-c1cn(P(=O)(O)O)c5cccc(c15)-c1cccc2c1NC4O3 (stereo partly drawn) [Compound 30],solubility,[1]; [4],> 1000 µg/mL
CC(C)[C@@H]1NC(=O)[C@@H](NC(=O)[C@@H](OP(=O)(O)O)C(C)C)Cc2ccc3c(c2)[C@]24C5=C(N=C1O5)c1ncc(o1)-c1c[nH]c5cccc(c15)-c1cccc2c1NC4O3 (stereo partly drawn) [Compound 22],solubility,[1]; [4],> 1000 µg/mL
same,tumor free animals,[3],no tumor free animals
same,weight loss in the treated group,[3],No weight loss
CCC(O)(CC)C(=O)N[C@H]1Cc2ccc3c(c2)C24C5=C(N=C(O5)[C@H](C(C)C)NC1=O)c1ncc(o1)-c1c[nH]c5c(OP(=O)(O)O)ccc(c15)-c1cccc2c1NC4O3 (stereo partly drawn) [Compound 37],solubility,[1]; [4],> 1000 µg/mL

# Source: patent publication US7960420B2, “Diazonamide analogs with improved solubility” (Joyant Pharmaceuticals, Inc, priority 2007, dated 2011)
